Data published in patent publication US4231936A, “Mitomycin C derivatives” (priority 1977, dated 1980).

Key:
[1] = tested on: Klebsiella pneumoniae ATCC 10031; test: Minimum inhibitory concentration (Table I); format: cell-based
Excerpt: (§1) Comparative data similarly obtained by using mitomycin A, mitomycin C and 7-N-phenyl mitomycin C are also shown in this table

[2] = tested on: Staphylococcus aureus ATCC 6538P; test: Minimum inhibitory concentration (Table I); format: cell-based
Excerpt: as §1

[3] = tested on: Shigella sonnei ATCC 9290; test: Minimum inhibitory concentration (Table I); format: cell-based
Excerpt: as §1

[4] = tested on: Bacillus subtilis ATCC 10707; test: Minimum inhibitory concentration (Table I); format: cell-based
Excerpt: as §1

P-388 cells [5] = test: Antitumor activity, P-388 leukemia intraperitoneally inoculated, compound i.p. (Example II); format: in vivo, CDF1 mice
Experimental: (§2) The following treatment was performed to make these compounds water-soluble for use in the experiments. A test compound was dissolved in ethanol (about 1000 times by weight) HCO-60, a commercially available surfactant was added in amounts of about 3 times by weight. The mixture was well stirred to dissolve the HCO-60. Ethanol was removed from the solution under reduced pressure by using a rotary evaporator. After this, a test solution was prepared by adding a suitable amount of a physiological saline solution with agitation.
Seven-day-old leukemia cells obtained from the ascites of DBA/2 mice inoculated intraperitoneally with 10^6 P-388 cells were used. A cell suspension containing 5×10^6 cells per ml was prepared by using a sterilized physiological saline solution. The test mice (CDF1 mice, 20-25 g) were inoculated with 0.2 ml of the cell suspension containing 1×10^6 cells intraperitoneally. After 24 hours, the mice were divided into groups (each group consisting of 5 mice) and the test solutions were administered intraperitoneally once only. […] In order to evaluate the effects of the test samples, the average survival days were calculated 30 and 60 days after tumor implantation and compared with those of the control group (untreated group). Antitumor activities of the test compounds are indicated by ILS % (increase in life span%) on the basis of the control group.

[6] = Acute toxicity determination, intraperitoneal; set-up: species or system Mice (dd-strain); details: mouse, in vivo, ip; dd mice, single i.p., 14 days, Behrens-Karber
Experimental: as §2
Mice [dd-strain; weight 20±1 g; each group consisted of 5 mice] were used for this experiment. An individual test solution was administered to each mouse by intraperitoneal injection. The test solutions (each 0.5 ml) were prepared by stepwise dilution.

P-388 cells [7] = test: Antitumor effect, P-388 cells intravenously inoculated, compound i.v. (Example III); format: in vivo, Mice; details: 30 days
Experimental: as §2
Mice were inoculated intravenously with P-388 cells (10^6 /0.2 ml) in a similar manner to that described above in Example II. […] Untreated mice and mice administered with Tween 80 were used for control purpose.

[8] = Number of leucocytes in peripheral blood of Sarcoma-180 bearing mice (Example IV); format: in vivo, dd-strain mice; details: 4 days after inoculation
Experimental: as §2
(§3) Sarcoma 180 cells were inoculated intraperitoneally into dd-strain mice. After 7 days following tumor implantation, ascites tumor cells were obtained from the mice. The cells were washed and a tumor cell suspension containing 5×10^7 cells per ml was prepared with physiological saline solution. 0.1 ml of the thus-prepared suspension containing 5×10^6 cells was inoculated into the left inguinal region of each of the test mice (dd-strain; weight 19±1 g; divided into groups, each group consisting of 5 mice). After 24 hours following the inoculation, the test compounds were administered to the mice individually and intraperitoneally. After 4 days following the inoculation, the peripherical blood of the treated mice was obtained by the puncture of the orbital vein. The number of the leucocytes in the peripheral blood was measured by using Toa Microcell Counter CC-108 (a commercial product of Toa Medical Electronics Co., Ltd., Japan). In order to evaluate the antitumor effects, the tumor was removed 7 days after the inoculation and weighed. Its weight was compared with the average weight of the tumors of the control group (untreated) to give the weight ratios (T/C) shown in Table 5.

Solubility in water = format: physicochemical
Sarcoma 180 cells = test: Effect on Sarcoma-180, tumor weight ratio (Example IV); format: in vivo, dd-strain mice; details: tumor weighed 7 days after inoculation
Experimental: as §2, §3

[9] = 5 mg/kg i.p. once, determined after 30 days
[10] = 5 mg/kg i.p. once, determined after 60 days
[11] = 10 mg/kg i.p. once, determined after 30 days
[12] = 10 mg/kg i.p. once, determined after 60 days
[13] = 20 mg/kg i.p. once, determined after 30 days
[14] = 20 mg/kg i.p. once, determined after 60 days
[15] = 30 mg/kg i.p. once, determined after 30 days
[16] = 30 mg/kg i.p. once, determined after 60 days

COC1=C(C)C(=O)C2=C(C1=O)[C@@H](COC(N)=O)[C@@]1(OC)[C@H]3N[C@H]3CN21 [Compound I, mitomycin A]
minimum inhibitory concentration [1]: < 0.025 | minimum inhibitory concentration [2]: < 0.025 | minimum inhibitory concentration [3]: 0.098 | minimum inhibitory concentration [4]: < 0.025

CO[C@@]12[C@H](COC(N)=O)C3=C(C(=O)C(C)=C(Nc4ccc(O)cc4)C3=O)N1C[C@@H]1N[C@@H]12 [Compound IV, 7-N-(p-hydroxyphenyl)-mitomycin C]
minimum inhibitory concentration [1]: 0.391 | minimum inhibitory concentration [2]: 0.196 | minimum inhibitory concentration [3]: 6.25 | minimum inhibitory concentration [4]: 0.049 | Average survival days (P-388 cells [5]; [9]): 20.4 ± 5.2 days | ILS % (increase in life span) (P-388 cells [5]; [9]): 108% | Number of survivors (P-388 cells [5]; [9]): 1/5 | Average survival days (P-388 cells [5]; [10]): 20.4 ± 5.2 days | ILS % (increase in life span) (P-388 cells [5]; [10]): 108% | Number of survivors (P-388 cells [5]; [10]): 0/5 | Average survival days (P-388 cells [5]; [11]): 23.0 ± 4.5 days | ILS % (increase in life span) (P-388 cells [5]; [11]): 135% | Number of survivors (P-388 cells [5]; [11]): 1/5 | Average survival days (P-388 cells [5]; [12]): 23.4 ± 5.1 days | ILS % (increase in life span) (P-388 cells [5]; [12]): 136% | Number of survivors (P-388 cells [5]; [12]): 0/5 | Average survival days (P-388 cells [5]; [13]): 28.4 ± 3.2 days | ILS % (increase in life span) (P-388 cells [5]; [13]): 190% | Number of survivors (P-388 cells [5]; [13]): 4/5 | Average survival days (P-388 cells [5]; [14]): 47.6 ± 15.8 days | ILS % (increase in life span) (P-388 cells [5]; [14]): 386% | Number of survivors (P-388 cells [5]; [14]): 3/5 | Average survival days (P-388 cells [5]; [15]): 15.4 ± 0.4 days | ILS % (increase in life span) (P-388 cells [5]; [15]): 57% | Number of survivors (P-388 cells [5]; [15]): 1/5 | Average survival days (P-388 cells [5]; [16]): 21.4 ± 20.7 days | ILS % (increase in life span) (P-388 cells [5]; [16]): 118% | Number of survivors (P-388 cells [5]; [16]): 1/5 | LD50 at 336 h [6]: 34 mg/kg | Average survival days (P-388 cells [7]; 5 mg/kg i.v. once): 11.4 ± 1.4 days | ILS % (P-388 cells [7]; 5 mg/kg i.v. once): 33% | Average survival days (P-388 cells [7]; 10 mg/kg i.v. once): 14.0 ± 0 days | ILS % (P-388 cells [7]; 10 mg/kg i.v. once): 63% | Average survival days (P-388 cells [7]; 15 mg/kg i.v. once): 16.6 ± 1.5 days | ILS % (P-388 cells [7]; 15 mg/kg i.v. once): 93% | Average survival days (P-388 cells [7]; 20 mg/kg i.v. once): 17.6 ± 4.1 days | ILS % (P-388 cells [7]; 20 mg/kg i.v. once): 105% | Average survival days (P-388 cells [7]; 30 mg/kg i.v. once): 7.6 ± 0.8 days | ILS % (P-388 cells [7]; 30 mg/kg i.v. once): -12% | Average number of leucocytes ([8]; 5 mg/kg i.p.): 63.2 ± 10.2 × 10^2 /mm^3 | Average number of leucocytes ([8]; 10 mg/kg i.p.): 64.0 ± 24.6 × 10^2 /mm^3 | Average number of leucocytes ([8]; 20 mg/kg i.p.): 39.0 ± 5.6 × 10^2 /mm^3 | Average number of leucocytes ([8]; 40 mg/kg i.p.): 40.0 ± 15.3 × 10^2 /mm^3 | solubility in water (Solubility in water): low solubility in water | T/C (tumor weight ratio) (Sarcoma 180 cells; 5 mg/kg i.p.): 0.83 | T/C (tumor weight ratio) (Sarcoma 180 cells; 10 mg/kg i.p.): 0.66 | T/C (tumor weight ratio) (Sarcoma 180 cells; 20 mg/kg i.p.): 0.46 | T/C (tumor weight ratio) (Sarcoma 180 cells; 40 mg/kg i.p.): 0.27
